{"source": "patent US20250177419A1", "about": "“PHARMACEUTICAL COMPOSITION COMPRISING NICLOSAMIDE OR PHARMACEUTICALLY ACCEPTABLE SALT THEREOF AND PREPARATION METHOD THEREFOR” (WEBIOTREE CO., LTD, priority 2022, published 2025)", "key": {"[1]": {"tested_on": "Beta and Omicron variants of SARS-CoV-2", "test": "Antiviral efficacy test in Vero E6 cells, qRT-PCR viral genome copy", "type": "cell-based"}, "[2]": {"tested_on": "SARS-CoV-2 Omicron (B11529)", "test": "Antiviral efficacy test in Vero E6 cells, qRT-PCR viral genome copy, Omicron", "type": "cell-based"}}, "data": [{"smiles": "O=C(Nc1ccc([N+](=O)[O-])cc1Cl)c1cc(Cl)ccc1O", "note": "[niclosamide]", "values": [{"measurement": "effectiveness in inhibiting viral proliferation compared to remdesivir", "setting": "[1]", "value": "over 1.7 times"}, {"measurement": "antiviral efficacy against the Omicron variant compared to the Beta variant", "setting": "[2]", "value": "more than four times higher antiviral efficacy"}]}]}
